Read-outs that look alike come from different tables or passages of the source.
Tests used:
[1] = cited from earlier work
[2] = tested on: ACVR1-mutant and wild-type patient-derived DIPG cells; assay: Single-agent cell viability in patient-derived DIPG cells; conditions: in vitro; P = 0.0272
Protocol: Cells were plated at a density of 2,000 to 4,000 cells/well on laminin-coated 96-well plates in a minimum of triplicates. After 3 days of incubation, compounds were added to each well and incubated at 37°C in 5% CO2, 95% humidity for 8 days (192 hours). […] Cell viability was assessed by the CellTiter-Glo luminescent cell viability assay (Promega).

ABCG2 (BCRP) = molecular target: T1, ABCG2 (BCRP) (Homo sapiens, UniProt Q9UNQ0); assay: Caco-2 permeability assay with BCRP substrate E3S; assay type: in vitro ADME; conditions: for interaction with BCRP / B–A apparent permeability of control substrate: Caco-2
T1 construct: Apparent permeability (Papp) was determined in the Caco-2 human colon carcinoma cell line; endogenous in cells; host or cells: Caco-2
T1 sequence (Q9UNQ0 1-655): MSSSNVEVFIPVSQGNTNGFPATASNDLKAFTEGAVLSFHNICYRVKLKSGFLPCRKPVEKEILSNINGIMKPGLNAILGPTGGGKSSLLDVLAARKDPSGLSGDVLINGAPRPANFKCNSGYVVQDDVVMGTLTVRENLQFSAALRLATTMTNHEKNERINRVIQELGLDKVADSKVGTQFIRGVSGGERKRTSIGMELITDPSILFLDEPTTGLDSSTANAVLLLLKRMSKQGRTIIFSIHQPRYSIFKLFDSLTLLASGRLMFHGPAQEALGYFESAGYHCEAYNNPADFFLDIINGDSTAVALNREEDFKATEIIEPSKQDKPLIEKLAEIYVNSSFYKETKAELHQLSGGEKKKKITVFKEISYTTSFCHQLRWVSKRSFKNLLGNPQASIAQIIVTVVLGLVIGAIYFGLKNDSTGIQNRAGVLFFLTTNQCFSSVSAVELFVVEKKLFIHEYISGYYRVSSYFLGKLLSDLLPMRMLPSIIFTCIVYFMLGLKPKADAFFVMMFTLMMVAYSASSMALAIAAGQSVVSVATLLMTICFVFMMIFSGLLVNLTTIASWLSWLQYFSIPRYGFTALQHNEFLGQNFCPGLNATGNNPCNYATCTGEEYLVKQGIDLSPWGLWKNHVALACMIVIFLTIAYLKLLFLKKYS
Protocol: (§1) Apparent permeability (Papp) was determined in the Caco-2 human colon carcinoma cell line. Cells were maintained (DMEM with 10% FBS, penicillin, and streptomycin) in a humidified atmosphere with 5%CO2/95% air for 10 days. Cells were plated out onto a cell culture assembly plate (Millipore), and monolayer confluency was checked using a transepithelial electrical resistance (TEER) electrode prior to the assay. Media were washed off and replaced in the appropriate apical and basal wells with Hank's Balanced Salt Solution buffer (pH 7.4). […] LY335979 (P-gp inhibitor) and Ko134 (BCRP inhibitor) were used as positive controls. The Caco-2 plate was incubated for 2 hours at 37°C in a humidified atmosphere with 5% CO2, and Lucifer yellow was used to confirm membrane integrity after the assay. Samples from the apical and basolateral chambers were analyzed using reverse chromatography tandem mass spectrometry on a Waters TQ-S.

[3] = substrates of efflux transporters ABCB1 (P-gp) and/or ABCG2 (BCRP) ref 27, 28; cited from earlier work
[4] = Vandetanib brain concentration in non-tumor-bearing mice (LC-MS/MS); assay type: in vivo, mouse; conditions: with everolimus compared with vandetanib alone, P = 0.0854
Protocol: Plasma and brain tissue samples were taken in triplicate at 1 hour after the last dose. Analysis was carried out by LC-MS/MS using a Xevo TQS coupled with an Acquity UPLC H-class system (Waters). Chromatography was carried out using a Phenomenex C18 X-B column (2.6 μm, 50 × 2.1 mm). Data acquisition was performed using Targetlynx, version 4.1, and modeling was carried out using Phoenix WinNonlin version 6.3.

DIPG = conditions: cited from earlier work
[5] = Vandetanib concentration in brain and tumor of NSG mice; assay type: in vivo; conditions: mouse, intraperitoneal, combined with everolimus
Protocol: (§2) Both patient-derived H3F3A^K27M, ACVR1^R206H HSJD-DIPG-007 cells and those derived from a Nestin-Tv-a; Trp53^fl/fl; Hist1h3b^K27M, Acvr1^R206H ([14]) GEMM were used for orthotopic implantation. A single-cell suspension of each culture was made the day before implantation and cultured overnight. On the implantation day, small tumorspheres in exponential growth were harvested by mild centrifugation. Three-week-old female athymic mice were anesthetized with 100 mg/kg ketamine and 10 mg/kg xylazine and immobilized in a stereotaxic apparatus (Stoelting) at coordinates x+0.5 and y−5.4 from the bregma suture. HSJD-DIPG-007 tumorspheres (5 × 10^5 cells), suspended in 5 μL Matrigel (BD Biosciences), were injected at a 3.1-mm depth (targeting the fourth ventricle) with a dull 22-gauge needle attached to a 50-μL syringe (Hamilton), using a stereotaxic arm. The animals (n = 72) were divided in four groups, with treatment starting 4 weeks (day 25) after tumor inoculation. […] Mice were monitored by daily weighing and sacrificed by decapitation upon deterioration of condition or 20% weight loss from the maximum weight achieved, with tissue taken for further analysis. Mouse brains collected at the end of the efficacy study were processed for IHC. […]

[6] = with everolimus to inhibit P-gp and BCRP ref 41; cited from earlier work
[7] = Vandetanib concentration in brain and tumor of nude mice; assay type: in vivo; conditions: female, athymic nude, mouse, intraperitoneal, combined with everolimus
Protocol: as §2

ABCB1 (P-gp) [8] = molecular target: T2, ABCB1 (P-gp) (Homo sapiens, UniProt P08183); conditions: Caco-2
T2 sequence (P08183 whole entry): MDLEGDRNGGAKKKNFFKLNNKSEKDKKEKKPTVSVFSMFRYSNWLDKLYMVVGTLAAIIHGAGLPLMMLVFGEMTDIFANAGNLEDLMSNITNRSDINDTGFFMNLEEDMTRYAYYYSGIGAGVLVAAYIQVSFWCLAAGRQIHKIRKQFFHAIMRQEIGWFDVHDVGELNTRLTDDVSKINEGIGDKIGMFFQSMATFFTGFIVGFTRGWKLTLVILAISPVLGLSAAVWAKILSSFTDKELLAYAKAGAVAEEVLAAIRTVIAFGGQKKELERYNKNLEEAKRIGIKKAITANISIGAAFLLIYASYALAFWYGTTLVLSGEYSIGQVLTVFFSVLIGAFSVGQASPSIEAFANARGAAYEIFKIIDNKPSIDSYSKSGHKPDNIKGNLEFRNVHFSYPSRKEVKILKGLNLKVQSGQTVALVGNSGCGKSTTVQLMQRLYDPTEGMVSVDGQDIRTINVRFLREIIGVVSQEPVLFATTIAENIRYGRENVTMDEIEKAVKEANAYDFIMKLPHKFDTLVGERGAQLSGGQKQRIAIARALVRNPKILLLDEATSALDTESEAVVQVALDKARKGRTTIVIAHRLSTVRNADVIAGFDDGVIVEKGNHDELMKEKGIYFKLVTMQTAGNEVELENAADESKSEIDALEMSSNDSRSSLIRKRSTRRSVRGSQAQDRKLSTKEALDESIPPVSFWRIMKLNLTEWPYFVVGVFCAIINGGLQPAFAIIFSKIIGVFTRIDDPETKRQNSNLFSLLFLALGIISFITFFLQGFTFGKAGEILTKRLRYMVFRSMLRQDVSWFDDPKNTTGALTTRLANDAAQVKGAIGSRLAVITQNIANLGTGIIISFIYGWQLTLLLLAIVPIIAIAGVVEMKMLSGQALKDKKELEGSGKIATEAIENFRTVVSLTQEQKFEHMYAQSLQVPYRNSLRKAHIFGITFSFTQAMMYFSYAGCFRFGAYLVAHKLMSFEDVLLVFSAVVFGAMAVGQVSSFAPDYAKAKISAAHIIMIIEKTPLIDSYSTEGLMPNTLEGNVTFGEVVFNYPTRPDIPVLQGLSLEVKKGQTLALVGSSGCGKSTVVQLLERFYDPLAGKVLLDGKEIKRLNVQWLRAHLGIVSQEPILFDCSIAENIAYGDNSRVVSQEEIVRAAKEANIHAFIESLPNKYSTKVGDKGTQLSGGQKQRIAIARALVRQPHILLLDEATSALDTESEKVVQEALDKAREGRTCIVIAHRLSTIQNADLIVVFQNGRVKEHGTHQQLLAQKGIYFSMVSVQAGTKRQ
Protocol: as §1

ABCB1 (P-gp) [9] = molecular target: T2, ABCB1 (P-gp); assay: Caco-2 permeability assay with P-gp substrate indinavir
Protocol: as §1

[10] = up to 70 mg weekly ref 54; cited from earlier work

SMILES: COc1cc2c(Nc3ccc(Br)cc3F)ncnc2cc1OCC1CCN(C)CC1 [vandetanib]
- MTD and recommended phase II dose of vandetanib ([1]; in combination with everolimus ref 42): 300 mg once daily
- enhanced difference in cell viability, ACVR1-mutant compared with wild-type DIPG cells [2]: approximately twofold
- interaction with BCRP / B–A apparent permeability of control substrate (ABCG2 (BCRP)): weak interactions
- effect of adding vandetanib to everolimus on BCRP substrate permeability (ABCG2 (BCRP); Caco-2, combination): no effect
- brain exposure [3]: insufficient brain exposures
- increase of median brain concentration of vandetanib [4]: 56%
- DLT (diarrhea grade 3) (DIPG; in vivo): one
- RP2D (DIPG; in vivo): 145 mg/m^2/d
- patients with grade 4 hypertension and posterior reversible encephalopathy syndrome (DIPG; in vivo): two
- 2-year OS (DIPG; single agent ref 32): 21.4%
- MTD (DIPG; single agent ref 32): not reached
- objective responses (DIPG; single agent ref 32): no objective responses
- concentration at 2 h ([5]; normal brain): 10 µM
- concentration at 2 h ([5]; tumour (GEMM allograft)): < 5 µM
- vandetanib brain concentrations in mice [6]: significantly increased
- concentration at 2 h ([7]; normal brain): > 15 µM
- concentration at 2 h ([7]; tumour (PDX)): > 15 µM
- interaction with P-gp / B–A apparent permeability of control substrate (ABCB1 (P-gp) [8]): weak interactions

SMILES: CO[C@H]1C[C@@H]2CC[C@@H](C)[C@@](O)(O2)C(=O)C(=O)N2CCCC[C@H]2C(=O)O[C@H]([C@H](C)C[C@@H]2CC[C@@H](OCCO)[C@H](OC)C2)CC(=O)[C@H](C)/C=C(\C)[C@@H](O)[C@@H](OC)C(=O)[C@H](C)C[C@H](C)/C=C/C=C/C=C/1C [everolimus]
- MTD and recommended phase II dose of everolimus ([1]; in combination with vandetanib ref 42): 10 mg once daily
- interaction with P-gp / B–A apparent permeability of control substrate (ABCB1 (P-gp) [9]): significantly decreased
- interaction with BCRP / B–A apparent permeability of control substrate (ABCG2 (BCRP)): significantly decreased
- mean peak levels compared with standard regimens [10]: tenfold higher
- tolerability of higher doses [10]: well tolerated

SMILES: C[C@@H](Oc1cc(-c2cnn(C3CCNCC3)c2)cnc1N)c1c(Cl)ccc(F)c1Cl [crizotinib]
- brain exposure [3]: insufficient brain exposures

— publication PMC7612365 (Cancer Discovery, 2021)
